From the NIST ThermoML archive (doi:10.1016/j.fluid.2004.11.022)

What was measured:
[1] = mn = molality of the nth substance listed, in mol/kg; conditions: 298.15 K, 101.3 kPa, Liquid
[2] = osmotic coefficient (dimensionless); mn = molality of the nth substance listed, in mol/kg; conditions: 298.15 K, Liquid, isopiestic method

[Cl-].[Cl-].[Zn+2] [zinc chloride] + CCO
Conditions | mass density [kg/m3] | osmotic coefficient
[1], m1 = 0.0018 | 785.28 | –
[1], m1 = 0.0035 | 785.46 | –
[1], m1 = 0.0053 | 785.67 | –
[1], m1 = 0.0087 | 786.03 | –
[1], m1 = 0.0106 | 786.24 | –
[1], m1 = 0.0127 | 786.47 | –
[1], m1 = 0.0167 | 786.9 | –
[1], m1 = 0.0185 | 787.09 | –
[1], m1 = 0.0227 | 787.56 | –
[1], m1 = 0.033 | 788.63 | –
[1], m1 = 0.0394 | 789.3 | –
[1], m1 = 0.0471 | 790.1 | –
[1], m1 = 0.051 | 790.5 | –
[1], m1 = 0.0551 | 790.94 | –
[1], m1 = 0.0624 | 791.69 | –
[1], m1 = 0.0691 | 792.36 | –
[1], m1 = 0.0734 | 792.8 | –
[1], m1 = 0.0781 | 793.28 | –
[1], m1 = 0.0825 | 793.72 | –
[1], m1 = 0.0921 | 794.68 | –
[1], m1 = 0.1035 | 795.81 | –
[1], m1 = 0.1713 | 802.4 | –
[1], m1 = 0.2776 | 812.39 | –
[1], m1 = 0.4056 | 824.04 | –
[1], m1 = 0.5788 | 839.34 | –
[1], m1 = 0.6875 | 848.7 | –
[1], m1 = 0.8432 | 861.8 | –
[1], m1 = 1.086 | 881.52 | –
[1], m1 = 1.132 | 885.11 | –
[1], m1 = 1.312 | 899.05 | –
[1], m1 = 1.346 | 901.59 | –
[1], m1 = 1.542 | 916.09 | –
[1], m1 = 1.689 | 926.54 | –
[1], m1 = 1.883 | 940 | –
[1], m1 = 2.041 | 950.61 | –
[1], m1 = 2.204 | 961.4 | –
[1], m1 = 2.402 | 974.29 | –
[1], m1 = 2.541 | 983.29 | –
[1], m1 = 2.776 | 998.74 | –
[2], m1 = 0.219 | – | 0.359
[2], m1 = 0.4046 | – | 0.332
[2], m1 = 0.4882 | – | 0.352
[2], m1 = 0.5854 | – | 0.358
[2], m1 = 0.7111 | – | 0.36
[2], m1 = 0.7875 | – | 0.379
[2], m1 = 0.8946 | – | 0.383
[2], m1 = 1.057 | – | 0.405
[2], m1 = 1.087 | – | 0.403
[2], m1 = 1.205 | – | 0.416
[2], m1 = 1.227 | – | 0.422
[2], m1 = 1.353 | – | 0.441
[2], m1 = 1.446 | – | 0.443
[2], m1 = 1.567 | – | 0.458
[2], m1 = 1.666 | – | 0.472
[2], m1 = 1.765 | – | 0.482
[2], m1 = 1.889 | – | 0.494
[2], m1 = 1.973 | – | 0.506
[2], m1 = 2.115 | – | 0.519
[2], m1 = 2.233 | – | 0.542
[2], m1 = 2.408 | – | 0.56
[2], m1 = 2.455 | – | 0.571
[2], m1 = 2.61 | – | 0.594
[2], m1 = 2.712 | – | 0.616
